# Entries after “also recorded” stand apart in the source; their conditions may differ. Read-outs that look alike come from different tables or passages of the source.
# Tests used:
# NOX3 mRNA [1] = experiment: Real time RT-PCR of NOX3 mRNA in UB/OC-1 cells; format: cell-based, mouse
# Method: (§1) Immortalized organ of Corti cells derived from the mouse, UB/OC-1 cells, were obtained from Dr. Matthew Holley (Institute of Molecular Physiology, Addison Building, Western Bank, Sheffield, UK) and cultured in RPMI 1640 supplemented with 10% Fetalclone II (Hyclone, Logan, Utah) serum and penicillin-streptomycin. Cultures were grown in a 33° C. incubator in 10% CO2.
# (§2) RNA was isolated by adding 1 ml TR1 reagent to 100 mg of cochlear or cortical tissue or 0.5 ml TR1 reagent (Sigma, St. Louis, Mo.) per well of each six well plate, according to the manufacturer's instructions.
# (§3) Real time reverse transcriptase polymerase chain reaction (RT-PCR): One microgram of total RNA was converted to cDNA using iScript cDNA Synthesis Kit (Bio-Rad, Hercules, Calif.), and qRTPCR was performed as described by (Mukherjea et al, 2006). Gene specific primer pairs were used for the various reactions and mRNA expression levels were normalized to the levels of GAPDH house keeping gene.
# (§4) The rodent set of primers and siRNA were based on the homologous sequences in the rat and mouse cDNA sequences. The primers were purchased from Sigma Genosys (St. Louis, Mo.). Purified siRNA duplexes were purchased from Qiagen (Valencia, Calif.).
# Rac1 [2] = experiment: Real time RT-PCR of Rac1 mRNA in UB/OC-1 cells; format: cell-based, mouse
# Method: as §1, §2, §3, §4
# NADPH oxidase = conditions: 10 μM, cochlear extracts, Lucigenin probe
# Method: In order to determine whether noise exposure increased the activity of NADPH oxidase in the chinchilla cochlea, a major source of reactive oxygen species (ROS), the activity of NADPH oxidase in cytosolic preparations from the cochlea was examined. The activity of NAD(P)H oxidase was determined using 50 μg protein from cochlear extracts incubated with 100 μM β-NAD(P)H in a total volume of 200 μl of Hank's HEPES buffer (pH 7.4). The assay was initiated by the addition of 50 μM N,N′-dimethyl-9,9′-biacridinium dinitrate (Lucigenin) (Sigma, St. Louis, Mo.) to the incubation mixture. Samples were counted immediately using a table top luminometer (Berthold Detection Systems FB Luminometer, Zylux Corp., Maryville, Tenn.) with sampling time every 6 sec. Samples were counted over a period of 5 min and the fluorescence recorded over 2 min of stable readings were averaged for that samples. Samples were run in duplicate and the NAD(P)H oxidase activity was normalized to the protein concentrations in each sample.
# gp91 [3] = experiment: Real time RT-PCR of gp91 mRNA in UB/OC-1 cells; format: cell-based, mouse
# Method: as §1, §2, §3, §4
# UB-OC1 cells [4] = experiment: Cell viability and morphology of UB-OC1 cultures; format: cell-based, mouse
# TRPV1 [5] = format: cell-based, mouse; conditions: for reduction of TRPV1 immunofluorescence: pretreatment with 100 μM AEBSF or 10 μM DPI before cisplatin 2.5 μM
# Method: as §1
# To further study the role of ROS generated via cochlear NADPH oxidases in the induction of TRPV1 in the cochlea, in vitro experiments were performed using the organ of Corti transformed hair cell line, UB/OC1 (Rivolta et al., Proc. R. Sco. Lond., 265, 1595-1603, 1998). […] Immunolabeling was quantitated by fluorescence imaging using a confocal microscope. […] The immunofluorescence in these groups was reduced by 60 and 70%, respectively (FIG. 2B). […] The increases in expression of these genes were inhibited by DPI (10 μM), indicative of a role or NADPH oxidase activity in the induction of these subunits (FIG. 2G).
# TRPV1 mRNA [6] = experiment: Real time RT-PCR of TRPV1 mRNA in rat cochlea; format: in vivo; conditions: rat cochlea
# Method: (§5) Animal procedures and sample collection: Male Wistar rats were used for this study. Pre-ABR's were performed 2-3 days before round window application of siTRPV1 or PBS. […] The cochleas were dissected and used for the preparation of total RNA or total protein extracts, or perfused with 2.5% glutaraldehyde for morphological studies by Scanning Electron Microscopy (SEM's) or 4% paraformaldehyde for immunocytochemistry.
# as §2, §3, §4
# TRPV1 protein [7] = experiment: Western blot of TRPV1 protein in whole cochlear lysates; format: in vivo, rat; conditions: 72 h following cisplatin
# Description: Cochleae were homogenized in ice-cold TRIS 50:10:100. The whole tissue lysate was then used for Western blotting. After transfer to nitrocellulose membrane TRPV1 protein was visualized by chemiluminesence detection (ECL, Amersham, Piscataway, N.J.).
# UB-OC1 cells [8] = experiment: Cisplatin-induced ROS generation by DCF2DA fluorescence in UB-OC1 cells; format: cell-based, mouse
# outer hair cells = experiment: Outer hair cell loss by scanning electron microscopy; format: in vivo, rat; conditions: cisplatin 16 mg/kg i.p., vehicle-pretreated cochlea, 3 days, N=3
# Method: Immediately after completion of follow-up ABRs, deeply sedated rats were euthanized, their cochleae harvested and processed as described in (Kamimura et al, 1999). Sputter coated cochleae were then viewed and photographed with a Hitachi S-500 scanning electron microscope (Hitachi Ltd., Tokyo, Japan).
# Hair cell counts were performed using a modified version of the method used by (Korver et al. 2002). Two representative areas of the basal turn and hook portion were photographed. In each area, inner or outer hair cells were counted in an area that was 10 pillar cell heads in length.
# The results were shown, as the average survival percentage rates compared to the control group. Statistical analysis was performed using Student's t-test.
# Five rats were administered either vehicle or TRPV1 siRNA (3 μl) by round window application. The rats served as their own controls since one cochlea was treated with vehicle and the other with siRNA.
# Rac1 [9] = experiment: Real time RT-PCR of Rac1 transcript in rat cochlea; format: in vivo; conditions: cisplatin (data not shown)
# Method: as §2, §3
# (§6) The rodent set of primers and siRNA were based on the homologous sequences in the rat and mouse cDNA sequences. The primers were purchased from Sigma Genosys (St. Louis, Mo.). Purified siRNA duplexes were purchased from Qiagen (Valencia, Calif.). Primers were as follows: Rodent NOX3 (sense): 5′-[…]-3′ (SEQ ID NO: 9) (antisense): 5′-[…]-3′ (SEQ ID NO: 10), Rodent-GAPDH (sense): 5′-[…]-3′ (SEQ ID NO: 11) (antisense): 5′-[…]-3′ (SEQ ID NO: 12), Rodent TRPV1 (sense): 5′-[…]-3′ (SEQ ID NO: 13), (antisense): 5-[…]-3′ (SEQ ID NO: 14), Rodent Rac-1 (sense): 5′-[…]-3′ (SEQ ID NO: 15), (antisense): 5′-[…]-3′ (SEQ ID NO: 16), Rodent gp-91 (sense) 5′-[…]-3′ (SEQ ID NO: 17), (antisense): 5′-[…]-3′ (SEQ ID NO: 18), and Rat p22 (sense): 5′-[…]-3′ (SEQ ID NO: 19), (antisense) 5′-[…]-3′ (SEQ ID NO: 20) […]
# Bax = Bax protein expression in UB/OC-1 cells; format: cell-based, mouse; conditions: cisplatin, 24 hr
# Method: (§7) The increases in these proteins were attenuated by capsazepine (10 μM), implicating TRPV1 in this process.
# NOX3 mRNA [10] = experiment: Real time RT-PCR of NOX3 mRNA in rat cochlea; format: in vivo; conditions: cisplatin, 72 hrs
# Method: as §5, §2, §3, §4
# p22 = experiment: Real time RT-PCR of p22 transcript in rat cochlea; format: in vivo; conditions: cisplatin (data not shown)
# Method: as §2, §3, §6
# UB-OC1 cells [11] = experiment: Apoptosis by TUNEL staining in UB-OC1 cells; format: cell-based, mouse; conditions: cisplatin 20 μM, 24 h
# Method: as §1
# Frag-EL DNA fragmentation kit and H2DCFDA dye was purchased from (Calbiochem, San Diego, Calif.). TRPV1 antibody (Neuromics, Edina, Minn.) and secondary goat anti rabbit antibody was purchased from Santa Cruz Biotechnology (Santa Cruz, Calif.).
# as §7
# TRPV1 mRNA [12] = experiment: Real time RT-PCR of TRPV1 mRNA in UB/OC-1 cells; format: cell-based, mouse; conditions: cisplatin 2.5 μM, 24 h
# Method: as §1, §2, §3, §4
# TRPV1 [13] = experiment: TRPV1 immunoreactivity in rat cochlea sections; format: in vivo; conditions: 72 h following cisplatin 13 mg/kg i.p.; confocal microscopy
# Method: Cochleae perfused with 4% paraformaldehyde were processed for decalcification and sectioning as described in (Dunaway et al., 2003). TRPV1-1 antibody was diluted 1:100 and samples were incubated for 1 h at 37° C. incubator. Secondary antibody used was goat anti-rabbit IgG conjugated to horse radish peroxidase (Santa Cruz Biotechnology, Inc, Santa Cruz, Calif.) which was diluted 1:200. ABC staining system (Santa Cruz Biotechnology), which included a diaminobenzadine as a peroxidase substrate, was used for visualization of protein expression. Slides were imaged using Scion Imaging system (Frederick, Md.).
# Rats were tested for hearing loss 72 h later using auditory brainstem evoked responses (ABRs). […] Cochleas obtained from these animals were decalcified, sectioned and processed for TRPV1 immunoreactivity using a polyclonal antibody (as described in Puntambekar et al., 2005). Visualization by confocal microscopy indicated TRPV1 immunoreactivity in the organ of Corti, supporting cells and spiral ganglion cells. […] The increases were 18±1 and 15±3 at 48 h and 72 h, respectively (FIG. 1C).
# gp91 [14] = experiment: Real time RT-PCR of gp91 transcript in rat cochlea; format: in vivo; conditions: cisplatin (data not shown)
# Method: as §2, §3, §6
# p53 = p53 protein expression in UB/OC-1 cells; format: cell-based, mouse; conditions: cisplatin, 24 hr
# Method: as §7
# UB/OC-1 cells = experiment: Intracellular Ca2+ with Fura4-AM in UB/OC-1 cells; format: cell-based, mouse; conditions: cisplatin
# Method: as §7
# TRPV1 protein [15] = experiment: Western blot of TRPV1 protein in UB-OC1 cells; format: cell-based, mouse; conditions: cisplatin 2.5 μM
compound,measurement,setting,value
"c1ccc2c(c1)[I+]c1ccccc1-2 [DPI, diphenyleneiodonium]",effect on cisplatin-induced increase in NOX3 expression,NOX3 mRNA [1]; DPI 10 μM,inhibited
same,effect on cisplatin-induced increase in Rac1 expression,Rac1 [2]; DPI 10 μM,inhibited
same,effect on NADPH oxidase activity,NADPH oxidase,blockade of enzyme activity
same,effect on cisplatin-induced increase in gp91 expression,gp91 [3]; DPI 10 μM,inhibited
same,effect on cell viability over a 24 h period,UB-OC1 cells [4],did not significantly affect cell viability
same,reduction of TRPV1 immunofluorescence,TRPV1 [5],70%
N.N.[Cl][Pt][Cl] [cisplatin],increase in TRPV1 transcripts,TRPV1 mRNA [6]; 24 h following cisplatin,15±1 fold
same,increase in TRPV1 transcripts,TRPV1 mRNA [6]; 48 h following cisplatin,18±1
same,increase in TRPV1 transcripts,TRPV1 mRNA [6]; 72 h following cisplatin,15±3
same,level of induction of TRPV1 by cisplatin,"TRPV1 mRNA [6]; lipoic acid experiment (FIG. 1D), 72 hrs",5.5±1.5 fold
same,increase in NOX3 mRNA,NOX3 mRNA [1]; cisplatin 2.5 μM,2.7 fold
same,TRPV1 protein (~95 kDa band) in whole cochlear lysates,TRPV1 protein [7],increased TRPV1 protein
same,ROS generation by DCF2DA fluorescence,"UB-OC1 cells [8]; cisplatin 2.5 μM, 30 minute",robust increase
same,increase in Rac1 mRNA,Rac1 [2]; cisplatin 2.5 μM,2.1 fold
same,"percentage of outer hair cell loss, base",outer hair cells,42±9 percentage
same,"percentage of outer hair cell loss, hook",outer hair cells,72±14 percentage
same,"percentage of outer hair cell loss, middle turn",outer hair cells,22±2.7 percentage
same,increase in Rac1 expression,Rac1 [9],478±85 fold
same,Bax protein,Bax,increases
same,change in NOX3 transcript in the cochlea,NOX3 mRNA [10],small but statistically significant increase
same,increase in p22 expression,p22,8±1 fold
same,apoptotic cells (TUNEL),UB-OC1 cells [11],~80%
same,increase in gp91 mRNA,gp91 [3]; cisplatin 2.5 μM,2.8 fold
same,change in TRPV1 mRNA,TRPV1 mRNA [12],significant increase; also recorded: Three fold increase
same,elevation of TRPV1 immunoreactivity in hair cells and spiral ganglion cells,TRPV1 [13],2-3 fold
same,increase in gp91 expression,gp91 [14],1000±102 fold
same,p53 protein,p53,increases
same,induction in TRPV1 immunoreactivity over control vehicle treated cells,"TRPV1 [5]; cisplatin 2.5 μM, 24 h",71±29%
same,intracellular Ca2+,UB/OC-1 cells,increased intracellular Ca2+
same,increase in TRPV1 protein by Western blotting,TRPV1 protein [15],90%±10%
NCCc1ccc(S(=O)(=O)F)cc1 [AEBSF],effect on cisplatin-induced increase in ROS generation,UB-OC1 cells [8]; pretreated with AEBSF 100 μM,abolished
same,effect on cell viability over a 24 h period,UB-OC1 cells [4]; 100 μM AEBSF or 10 μM DPI,did not significantly affect cell viability
same,reduction of TRPV1 immunofluorescence,TRPV1 [5],60%
